Literature values, collected in patent US20040191214A1, “Nucleoside vaccine adjuvants” (priority 2001, published 2004).

Test system: lymphocyte
Settings: stated as known; see U.S. Pat. Nos. 6,130,326, 6,063,772, 5,767,097 to Tam

| Compound | stimulation of Type 1 or Type 2 (cytokine) response |
| --- | --- |
| Cl.N=C(N)c1cn([C@@H]2O[C@H](CO)[C@@H](O)[C@H]2O)c2nc[nH]c(=O)c12 [7-(β-D-ribofuranosyl)pyrrolo[2,3-d]4-pyrimidone-5-carboxamidine*HCl] | stimulate a Type 2 response |
| NC(=O)c1ncn([C@H]2O[C@@H](CO)[C@H](O)[C@@H]2O)n1 [Levovirin, 1-beta-L-ribofuranosyl-1,2,4-triazole-3-carboxamide] | stimulate a Type 1 response |
| NC(=O)c1ncn([C@@H]2O[C@H](CO)[C@@H](O)[C@H]2O)n1 [Ribavirin, 1-beta-D-ribofuranosyl-1,2,4-triazole-3-carboxamide] | stimulate a Type 1 response |
| N=C(N)c1ncn([C@@H]2O[C@H](CO)[C@@H](O)[C@H]2O)n1 [Viramidine, 1-beta-D-ribofuranosyl-1,2,4-triazole-3-carboxamidine] | stimulate a Type 1 response |
